The source of these data is patent US7109216B2 (priority 2001, dated 2006).

SMILES strings stand for the structures. pKi: −log10 of the molar value. Where two headings read alike, the source gives them in different places. Bounds are passed on as bounds.

Data set [1] deals with T1, human cannabinoid CB1 receptor (Homo sapiens, UniProt P21554). Kind of data set: Cannabinoid CB1 antagonistic activity, forskolin-induced cAMP accumulation in CHO cells. The format is cell-based. Also noted: expressed in transfected cells; host or cells: CHO cells. As for the experimental part: The cannabinoid CB1 antagonistic activity of compounds of the invention was determined by functional studies using CHO cells in which human cannabinoid CB1 receptors were stably expressed. Adenylyl cyclase was stimulated using forskolin and measured by quantifying the amount of accumulated cyclic AMP. Concomitant activation of CB1 receptors by CB1 receptor agonists (e.g. CP-55,940 or (R)-WIN-55,212–2) can attenuate the forskolin-induced accumulation of cAMP in a concentration-dependent manner. This CB1 receptor-mediated response can be antagonized by CB1 receptor antagonists such as the compounds of the invention.
On the technique in general: cAMP levels reflect the balance of adenylyl cyclase and phosphodiesterase activity.

Data set [2] addresses T1, human cannabinoid CB1 receptor. Kind of data set: biochemical. Also noted: expressed in transfected cells; host or cells: Chinese hamster ovary (CHO) cells, membrane preparation. To be noted: [3H]CP-55,940 radioligand, CHO cell membranes stably transfected with human CB1; for Ki: read-out: hCB1 pKi (converted); for pKi: hCB1 pKi. Format: binding. As for the experimental part: After incubation of a freshly prepared cell membrane preparation with the [^3H]-ligand, with or without addition of compounds of the invention, separation of bound and free ligand was performed by filtration over glassfiber filters. Radioactivity on the filter was measured by liquid scintillation counting.

Where [3] appears, read: antagonism of CB1 agonist (e.g. CP-55,940 or (R)-WIN-55,212-2) effect on forskolin-induced cAMP accumulation, CHO cells expressing human CB1.
Setting [4] is: antagonism of CB1 agonist (e.g. CP-55,940 or (R)-WIN-55,212-2) effect on forskolin-induced cAMP accumulation, CHO cells expressing human CB1, read-out: hCB1 pA2 (converted).

T1 sequence (P21554 whole entry): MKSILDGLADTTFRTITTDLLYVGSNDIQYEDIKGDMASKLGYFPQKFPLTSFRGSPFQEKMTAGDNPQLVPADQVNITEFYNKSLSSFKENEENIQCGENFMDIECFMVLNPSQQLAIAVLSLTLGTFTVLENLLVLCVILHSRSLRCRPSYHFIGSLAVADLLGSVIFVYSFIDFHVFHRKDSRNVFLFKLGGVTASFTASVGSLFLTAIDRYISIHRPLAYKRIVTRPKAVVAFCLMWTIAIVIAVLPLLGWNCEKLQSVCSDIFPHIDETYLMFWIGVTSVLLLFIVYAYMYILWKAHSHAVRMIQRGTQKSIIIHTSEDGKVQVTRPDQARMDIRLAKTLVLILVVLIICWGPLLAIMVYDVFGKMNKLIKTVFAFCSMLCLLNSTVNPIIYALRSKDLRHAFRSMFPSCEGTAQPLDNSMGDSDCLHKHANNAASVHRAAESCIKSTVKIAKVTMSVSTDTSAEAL

In data set [1], `O=C(NN1CCCCC1)c1cn(-c2ccc(Br)cc2)c(-c2ccc(Cl)cc2Cl)n1` [Example 22, 1-(4-bromophenyl)-2-(2,4-dichlorophenyl)-N-(piperidin-1-yl)-1H-imidazole-4-carboxamide] gave a Kb of 10 nM. In data set [2], the Ki was 398 nM.
Regarding `Cc1c(C(=O)NC2CCCCCC2)nc(-c2ccc(Cl)cc2Cl)n1-c1ccc(Cl)cc1` [Example 108, 1-(4-Chlorophenyl)-N-cycloheptyl-2-(2,4-dichlorophenyl)-5-methyl-1H-imidazole-4-carboxamide], the melting point lay in the range of 154 to 156 °C. Moreover, the “hCB1 pA2” value in data set [1] (setting [3]) is 9.1. In data set [2], this compound gave a pKi of 8.10.
As for `CN(Cc1ccccc1)C(=O)c1cn(-c2ccc(Cl)cc2)c(-c2ccc(Cl)cc2Cl)n1` [Example 6, N-(Benzyl)-1-(4-chlorophenyl)-2-(2,4-dichlorophenyl)-N-methyl-1H-imidazole-4-carboxamide], the Kb in data set [1] (setting [4]) was 50.1 nM. Moreover, the pKi in data set [2] was 7.20.
Taken in the same sequence, the figures for `Cc1c(C(=O)NN2CCCCC2)nc(-c2ccc(Cl)cc2Cl)n1-c1ccc(Cl)cc1` [Example 12, 1-(4-Chlorophenyl)-2-(2,4-dichlorophenyl)-5-methyl-N-(piperidin-1-yl)-1H-imidazole-4-carboxamide] were 1.26 nM and 7.90.
Turning to `Cc1c(C(=O)NC2CCCC2)nc(-c2ccc(Cl)cc2Cl)n1-c1ccc(Cl)cc1` [Example 107, 1-(4-Chlorophenyl)-N-cyclopentyl-2-(2,4-dichlorophenyl)-5-methyl-1H-imidazole-4-carboxamide], the melting point was 172 °C. Also, in data set [1] (setting [3]), the “hCB1 pA2” value was determined as 8.9. Besides, the negative logarithm of the Ki (pKi) in data set [2] is 6.80.
Consider `Cc1c(C(=O)N[C@H]2CC[C@H](O)CC2)nc(-c2ccc(Cl)cc2Cl)n1-c1ccc(Cl)cc1` [Example 86, 1-(4-Chlorophenyl)-2-(2,4-dichlorophenyl)-N-(trans-4-hydroxycyclohexyl)-5-methyl-1H-imidazole-4-carboxamide], for which the melting point is 160 °C (dec.). Besides, the Kb in data set [1] (setting [4]) is 15.8 nM. The compound further showed a pKi in data set [2] of 6.90.
The matching figures for `CCc1c(C(=O)NN2CCCCC2)nc(-c2ccc(Cl)cc2Cl)n1-c1ccc(Br)cc1` [Example 19, 1-(4-Bromophenyl)-2-(2,4-dichlorophenyl)-5-ethyl-N-(piperidin-1-yl)-1H-imidazole-4-carboxamide]: over 140 °C, 1.26 nM and 7.50.
Consider `O=C(NN1CC2CCCC2C1)c1cn(-c2ccc(Cl)cc2)c(-c2ccc(Cl)cc2Cl)n1` (centres unmarked) [Example 26, 1-(4-Chlorophenyl)-2-(2,4-dichlorophenyl)-N-(hexahydrocyclopenta[c]pyrrol-2(1H)-yl)-1H-imidazole-4-carboxamide], for which the Kb in data set [1] (setting [4]) is 10 nM. Moreover, the pKi in data set [2] is 6.30.
`Cc1c(C(=O)NC2CC3CCC2C3)nc(-c2ccc(Cl)cc2Cl)n1-c1ccc(Cl)cc1` (stereo not drawn) [Example 84, N-(Exo-bicyclo[2.2.1]hept-2-yl)-1-(4-chlorophenyl)-2-(2,4-dichlorophenyl)-5-methyl-1H-imidazole-4-carboxamide] gave a melting point of 194 to 195 °C. For the same compound, in data set [1] (setting [4]), the Kb is 1.26 nM. The compound further gave a pKi in data set [2] of 7.80.
In the case of `CS(=O)(=O)c1c(C(=O)NN2CCCCC2)nc(-c2ccc(Cl)cc2Cl)n1-c1ccc(Cl)cc1` [Example 118, 1-(4-Chlorophenyl)-2-(2,4-dichlorophenyl)-5-methylsulfonyl-N-(piperidin-1-yl)-1H-imidazole-4-carboxamide], the melting point is 181 to 185 °C (dec.). Further, in data set [1] (setting [3]), the “hCB1 pA2” value was 8.5. The same compound showed a pKi in data set [2] of 7.80.
The matching figures for `Cc1c(C(=O)NN2CC3CCCC3C2)nc(-c2ccc(Cl)cc2Cl)n1-c1ccc(Cl)cc1` (centres unmarked) [Example 81, 1-(4-Chlorophenyl)-2-(2,4-dichlorophenyl)-N-(hexahydrocyclopenta-[c]pyrrol-2(1H)-yl)-5-methyl-1H-imidazole-4-carboxamide]: 143 to 146 °C, 9.8 and 7.50.
Turning to `N#Cc1c(C(=O)NN2CCCCC2)nc(-c2ccc(Cl)cc2Cl)n1-c1ccc(Cl)cc1` [Example 110, 1-(4-chlorophenyl)-5-cyano-2-(2,4-dichlorophenyl)-N-(piperidin-1-yl)-1H-imidazole-4-carboxamide], in data set [1] (setting [3]), the “hCB1 pA2” value is on record as 8.6. The compound further showed a negative logarithm of the Ki (pKi) in data set [2] of 7.50.
Turning to `CCc1c(C(=O)NOC(C)(C)C)nc(-c2ccc(Cl)cc2Cl)n1-c1ccc(Cl)cc1` [Example 14, N-(t-Butoxy)-1-(4-chlorophenyl)-2-(2,4-dichlorophenyl)-5-ethyl-1H-imidazole-4-carboxamide], in data set [1] (setting [4]), the Kb is 0.126 nM. Besides, the pKi in data set [2] is 7.00.
As to `Cc1c(C(=O)NN2CCOCC2)nc(-c2ccc(Cl)cc2Cl)n1-c1ccc(Cl)cn1` [Example 52, 1-(5-Chloropyridin-2-yl)-2-(2,4-dichlorophenyl)-5-methyl-N-(4-morpholinyl)-1H-imidazole-4-carboxamide], the Kb in data set [1] was 2.51 nM. For the same compound, the Ki in data set [2] is 501 nM.
The matching figures for `CC(C)(C)ONC(=O)c1cn(-c2ccc(Br)cc2)c(-c2ccc(Cl)cc2Cl)n1` [Example 23, N-(t-Butoxy)-1-(4-bromophenyl)-2-(2,4-dichlorophenyl)-1H-imidazole-4-carboxamide]: 1 nM and 398 nM.
As to `Cc1c(C(=O)NN2CCCCC2)nc(-c2ccc(Cl)cc2)n1-c1ccc(Cl)cc1Cl` [Example 10, 2-(4-chlorophenyl)-1-(2,4-dichlorophenyl)-5-methyl-N-(piperidin-1-yl)-1H-imidazole-4-carboxamide], the Kb in data set [1] (setting [4]) was 7.94 nM. Also, the negative logarithm of the Ki (pKi) in data set [2] is 6.50.
Taken in the same sequence, the figures for `Cc1c(C(=O)NOC(C)(C)C)nc(-c2ccc(Cl)cc2Cl)n1-c1ccc(Cl)cc1` [Example 13, N-(t-Butoxy)-2-(2,4-dichlorophenyl)-1-(4-chlorophenyl)-5-methyl-1H-imidazole-4-carboxamide] were 3.16 nM and 7.10.
As for `O=C(NN1CCCCC1)c1cn(-c2ccc(Cl)cc2)c(-c2ccc(Cl)cc2Cl)n1` [Example 1, 1-(4-chlorophenyl)-2-(2,4-dichlorophenyl)-N-(piperidin-1-yl)-1H-imidazole-4-carboxamide], in data set [1] (setting [3]), the “hCB1 pA2” value is 8.2. For the same compound, in data set [2], the negative-log Ki (pKi) was 7.90.
On to `CCc1c(C(=O)NN2CCCCC2)nc(-c2ccc(Cl)cc2Cl)n1-c1ccc(Cl)cc1` [Example 15, 1-(4-Chlorophenyl)-2-(2,4-dichlorophenyl)-5-ethyl-N-(piperidin-1-yl)-1H-imidazole-4-carboxamide], for which, in data set [1] (setting [4]), the Kb is 0.501 nM. This compound also showed a pKi in data set [2] of 8.00.
Regarding `O=C(NC1CCCCC1)c1cn(-c2ccc(Cl)cc2)c(-c2ccc(Cl)cc2Cl)n1` [Example 5, 1-(4-Chlorophenyl)-N-cyclohexyl-2-(2,4-dichlorophenyl)-1H-imidazole-4-carboxamide], the Kb in data set [1] (setting [4]) was 7.94 nM. In data set [2], this compound gave a pKi of 7.10.
The matching figures for `O=C(NCc1ccc(F)cc1)c1cn(-c2ccc(Cl)cc2)c(-c2ccc(Cl)cc2Cl)n1` [Example 27, 1-(4-Chlorophenyl)-2-(2,4-dichlorophenyl)-N-(4-fluorobenzyl)-1H-imidazole-4-carboxamide]: 3.98 nM and 7.20.
The matching figures for `Cc1c(C(=O)NN2CCCCC2)nc(-c2ccc(Cl)cc2Cl)n1-c1ccc(C(F)(F)F)cc1` [Example 45, 2-(2,4-dichlorophenyl)-5-methyl-N-(piperidin-1-yl)-1-(4-(trifluoromethyl)phenyl)-1H-imidazole-4-carboxamide]: 1.58 nM and 7.80.
Taken in the same sequence, the figures for `O=C(NN1CCCCC1)c1nc(-c2ccc(Cl)cc2Cl)n(-c2ccc(Br)cc2)c1Cl` [Example 109, 1-(4-bromophenyl)-5-chloro-2-(2,4-dichloro-phenyl)-N-(piperidin-1-yl)-1H-imidazole-4-carboxamide] were 1.58 nM and 6.60.
Turning to `CC(C)(C)ONC(=O)c1cn(-c2ccc(Cl)cc2)c(-c2ccc(Cl)cc2Cl)n1` [Example 3, N-(t-Butoxy)-1-(4-chlorophenyl)-2-(2,4-dichlorophenyl)-1H-imidazole-4-carboxamide], in data set [1], the Kb was 31.6 nM. Further, the Ki in data set [2] was 158 nM.
Regarding `CCCCCNC(=O)c1nc(-c2ccc(Cl)cc2Cl)n(-c2ccc(Br)cc2)c1CC` [Example 21, 1-(4-Bromophenyl)-2-(2,4-dichlorophenyl)-5-ethyl-N-(n-pentyl)-1H-imidazole-4-carboxamide], the Kb in data set [1] (setting [4]) was under 1 nM. In data set [2], this compound gave a pKi of 7.50.
In the case of `O=C(NN1CCCC1)c1cn(-c2ccc(Cl)cc2)c(-c2ccc(Cl)cc2Cl)n1` [Example 2, 1-(4-Chlorophenyl)-2-(2,4-dichlorophenyl)-N-(pyrrolidin-1-yl)-1H-imidazole-4-carboxamide], the Kb in data set [1] (setting [4]) was 25.1 nM. The compound further gave a pKi in data set [2] of 7.00.

By melting point is commonly meant the temperature of the solid-liquid transition. In general, pKi refers to the negative decadic logarithm of the Ki, by convention in mol/L. High values mean a low Ki, low ones a high Ki.
